Assays:
DLD1 NRF2-WT [1] = experiment: TC50 cytotoxicity; higher = less toxic; details: 72 h; CellTox Green cytotoxicity
How it was run: (§1)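 Isogenic DLD1 colorectal cancer cells differing in NRF2 status, one line edited by CRISPR, were cultured in DMEM with 10% FBS and treated in 384-well plates with library compounds at 5 concentrations spanning a 10,000-fold range. Plates were read after 72 h with CellTox Green on a Pherastar FS reader, and signals were normalised to vehicle wells and 100-μM positive-control wells. Cytotoxicity was summarised as TC50 and as a drug sensitivity score, a normalised area under the curve, both from logistic dose-response fits.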

DLD1 NRF2-GOF [2] = experiment: TC50 cytotoxicity; higher = less toxic; details: 72 h; CellTox Green cytotoxicity
How it was run: as §1

DLD1 NRF2-WT [3] = experiment: drug sensitivity score (DSS) viability (DSS score); higher = more sensitive; extreme values may be limits of the assay; details: 72 h; CellTiter-Glo viability
How it was run: (§2)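 Library compounds were tested in 384-well plates at 5 concentrations covering a 10,000-fold span against isogenic DLD1 colorectal cancer cells, NRF2 wild-type or CRISPR gain-of-function, grown in DMEM with 10% FBS. Viability was measured at 72 h with CellTiter-Glo on a Pherastar FS reader, relative to vehicle wells and 100-μM positive-control wells. EC50 and drug sensitivity score (normalised area under the curve) were derived from logistic dose-response curves fitted with four parameters.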

DLD1 NRF2-GOF [4] = experiment: as above; details: 72 h; CellTiter-Glo viability
How it was run: as §2

DLD1 NRF2-WT [5] = details: 72 h; CellTiter-Glo viability
How it was run: as §2

DLD1 NRF2-GOF [6] = details: 72 h; CellTiter-Glo viability
How it was run: as §2

DLD1 NRF2-WT [7] = experiment: drug sensitivity score (DSS) cytotoxicity (DSS score); higher = more toxic; extreme values may be limits of the assay; details: 72 h; CellTox Green cytotoxicity
How it was run: as §1

DLD1 NRF2-GOF [8] = experiment: as above; details: 72 h; CellTox Green cytotoxicity
How it was run: as §1

Structure (SMILES) | TC50 cytotoxicity (DLD1 NRF2-WT [1]) [nM] | TC50 cytotoxicity (DLD1 NRF2-GOF [2]) [nM] | drug sensitivity score (DLD1 NRF2-WT [3]) | drug sensitivity score (DLD1 NRF2-GOF [4]) | EC50 viability (DLD1 NRF2-WT [5]) [nM] | EC50 viability (DLD1 NRF2-GOF [6]) [nM] | drug sensitivity score (DLD1 NRF2-WT [7]) | drug sensitivity score (DLD1 NRF2-GOF [8])
Cc1ccc(=O)n(-c2ccccc2)c1 [Pirfenidone] | > 10000 | > 10000 | 0 | 0 | > 10000 | > 10000 | 0 | 0
NC1(c2ccc(-c3nc4ccn5c(=O)[nH]nc5c4cc3-c3ccccc3)cc2)CCC1 [MK-2206] | > 1000 | > 1000 | 4.3 | 0.7 | 52.2 | > 1000 | 0 | 0
CC1(COc2ccc3c(c2)ncn3-c2ccc3cccc(N4CCC(N)CC4)c3n2)COC1 [Crenolanib] | 2650 | 2890 | 10.9 | 9.3 | 1030 | 1460 | 4.3 | 6.1
CNC(=O)c1cccc2cc(Oc3ccnc4cc(OCC5(N)CC5)c(OC)cc34)ccc12 [Lucitanib] | > 10000 | > 10000 | 2.7 | 1.3 | 796 | > 10000 | 0 | 0
COc1cc2c(cc1OCCCN1CCCC1)N=C(N)C21CCC1 [A-366] | > 25000 | > 25000 | 0 | 0 | > 25000 | > 25000 | 0 | 0
Nc1ncnc2c1nc(N)n2[C@@H]1O[C@H](CO)[C@@H](O)[C@H]1O [8-amino-adenosine] | 4710 | 5200 | 20 | 18.2 | 1070 | 1500 | 11.8 | 11.2
Nc1ncnc2c1nc(Cl)n2[C@@H]1O[C@H](CO)[C@@H](O)[C@H]1O [8-chloro-adenosine] | > 50000 | > 50000 | 16.6 | 15.2 | 1150 | 1310 | 0 | 0.2
COc1ccc(-c2ccc3ncc4c(c3c2)n(-c2ccc(N3CCNCC3)c(C(F)(F)F)c2)c(=O)n4C)cn1 [NVP-BGT226] | 338 | 359 | 17.5 | 16.2 | 26.4 | 35 | 4.4 | 4.1
CNC(=O)c1nn(C)c2c1C(C)(C)Cc1cnc(Nc3ccc(N4CCN(C)CC4)cc3)nc1-2 [Milciclib] | > 10000 | > 10000 | 10.8 | 8.5 | 926 | 1190 | 0.5 | 0
C=CC(=O)N1CCC(Oc2cc3c(Nc4ccc(Cl)c(Cl)c4F)ncnc3cc2OC)CC1 [Poziotinib] | > 1000 | > 1000 | 3.6 | 2.7 | 203 | 258 | 0 | 0
CO[C@@H]1[C@H](N(C)C(=O)c2ccccc2)C[C@H]2O[C@]1(C)n1c3ccccc3c3c4c(c5c6ccccc6n2c5c31)C(=O)NC4 [Midostaurin] | 686 | 801 | 9.8 | 12.4 | 880 | 499 | 12.4 | 12.9
CN1CC[C@H](c2c(O)cc(O)c3c(=O)cc(-c4ccccc4Cl)oc23)[C@H](O)C1 [Alvocidib] | > 10000 | > 10000 | 20.1 | 16.2 | 156 | 266 | 0.8 | 0
Cc1ccc(C(=O)Nc2cccc(C(F)(F)F)c2)cc1Nc1nc(-c2cccnc2)nc2c1cnn2C [NVP-BHG712] | > 10000 | > 10000 | 2.2 | 0.9 | > 10000 | > 10000 | 0 | 0
CN(C)C1CCN(C(=O)c2ccc(NC(=O)Nc3ccc(-c4nc(N5CCOCC5)nc(N5CCOCC5)n4)cc3)cc2)CC1 [Gedatolisib] | > 1000 | > 1000 | 13.5 | 12.6 | 19.6 | 26.6 | 0 | 0
COCCOc1cnc2ccn([C@H](C)c3nnc4c(F)cc(-c5cnn(C)c5)cn34)c(=O)c2c1 [AMG-337] | > 10000 | > 10000 | 4.2 | 6.6 | 543 | 270 | 0 | 0
COc1cc(N2CCC(N3CCN(C)CC3)CC2)ccc1Nc1ncnc(Nc2ccccc2S(=O)(=O)C(C)C)n1 [ASP3026] | > 10000 | > 10000 | 3.3 | 3 | 3550 | 3420 | 0 | 0
O=C(O)CC[C@H]1CC[C@@](c2cc(F)ccc2F)(S(=O)(=O)c2ccc(Cl)cc2)CC1 [MK-0752] | > 1000 | > 1000 | 0.7 | 9.1 | > 1000 | 1.7 | 0 | 0
CNC(=O)c1ccc(-c2cnc3ncc(Cc4ccc5ncccc5c4)n3n2)cc1F [Capmatinib] | > 1000 | > 1000 | 0 | 0 | > 1000 | > 1000 | 0 | 0
COc1cc2nccc(Oc3ccc(NC(=O)Nc4cc(C)on4)c(Cl)c3)c2cc1OC [Tivozanib] | 2920 | 2640 | 3.1 | 2.3 | 3040 | 3590 | 2.3 | 4.5

From the supplement of paper PMC7600603
